Data reported in paper PMC6332339, “Synthesis, Characterization, and Anti-Cancer Activity of Some New N′-(2-Oxoindolin-3-ylidene)-2-propylpentane hydrazide-hydrazones Derivatives” (Molecules, 2015).
“Also recorded” adds a separate entry of the source.

Columns and labels:
[1] = tested on: HepG2 human liver cancer cell line; assay: MTT cytotoxicity assay in HepG2 cells; assay type: cell-based; conditions: 24 h treatment, mean ± SD; for IC50: Homo sapiens
Description: (§1) The cyto-toxicity activity was measured in vitro in HepG2, Jurkat, and HEK 293 cells using the MTT […] colorimetric assay. For comparison, 5-Fluorouracil (5-FU) was used as a standard anti-cancer drug. Treatment with dimethylsulfoxide (DMSO) was used as a control for the cancer cells.
(§2) The stock concentration of the entire compound in DMSO was 10 mM and this concentration was used to prepare the working dilution. The final DMSO concentration used in the experiments was ≤0.5% as the working concentration. Human liver cancer cell lines (HepG2), human leukemia cell line (Jurkat), and human embryonic kidney cell line (HEK293) cells were cultured in high glucose Dulbecco’s Modified Eagle Medium (DMEM: Life technologies cat #11995073) supplemented with 10% Fetal bovine serum (FBS: Life technologies cat #16000044) in a humidified incubator with 5% CO2 at 37 °C. Around 2 ×10^3 cells were seeded in each well of a 24-well cell culture plate and were allowed to adhere and grow for 24 h. The Jurkat cells grow in suspension so they were cultured and allowed to grow overnight before the addition of compounds. The compounds in serial dilutions (1, 3, 15, 45, 100, and 300 μM) were added after 24 h of culture and the cells were cultured for another 24 h at 37 °C. The cell viability was determined in each experiment using MTT 1-(4,5-dimethylthiazol-2-yl)-3,5-diphenylformazan colorimetric assay. Briefly, the treated or untreated cells were trypsenized and centrifuged, and the resulting pellet was re-suspended in 100 μL of DMEM serum-free medium and incubated at 37 °C for 2 h. After incubation, 20 μL of MTT solution (5 mg/mL in PBS: Sigma Aldrich cat #M2003) was added to each well and further incubated for 2 h. The plate was centrifuged at […] for 10 min then the medium was removed from each well and 2-propanol containing 0.04 M HCl was added to dissolve the formazan produced in the cells. The optical density of the formazan product in solution was measured with a microplate reader at 540 nm. The experiment was conducted in triplicate. Data were calculated as percent of cell viability by the following formula:
(§3) % cell viability = (Mean absorbance in test wells/Mean absorbance in control wells) × 100 (1)
(§4) The IC50 values were calculated from the means of six different concentrations by Bio Data Fit 1.02 using the software Bio Tool Kit (Version 300; Chang Bioscience Inc., Castro Valley, CA, USA) and online program http://ic50.tk/index.html.

[2] = tested on: Jurkat human leukaemia cell line; assay: MTT cytotoxicity assay in Jurkat cells; assay type: cell-based; conditions: 24 h treatment, mean ± SD
Description: as §1, §2, §3, §4

[3] = tested on: HEK293 human embryonic kidney cell line; assay: MTT cytotoxicity assay in normal HEK293 cells; assay type: cell-based; conditions: 24 h treatment, mean ± SD; for IC50: Homo sapiens
Description: as §1, §2, §3, §4

[4] = tested on: human tumour cell lines (HepG2 and Jurkat); assay: MTT assay, summary over the tested human tumour cell lines; assay type: cell-based; conditions: summary over HepG2 and Jurkat cells
Description: as §1, §2, §3, §4

## CCCC(CCC)C(=O)O [Compound 1, Valproic acid, reference compound]
[1]
  IC50 (μM) HepG2: did not show promising anti-cancer activity
  IC50: 69.7 ± 40.8 µM
[2]; Homo sapiens, Jurkat, 24 h
  IC50: 79.4 ± 40.7 µM
[3]
  IC50: 63 ± 38.2 µM

## CCCC(CCC)C(=O)NN [Compound 2, Valproic Hydrazide]
[1]
  IC50 (μM) HepG2: did not show promising anti-cancer activity
  IC50: 68.5 ± 37.1 µM
[2]; Homo sapiens, Jurkat, 24 h
  IC50: > 100 µM
[3]
  IC50: > 100 µM

## O=C1Nc2ccccc2C1=O [Compound 3a]
[1]
  IC50 (μM) HepG2: no anti-cancer activity
  IC50: > 100 µM
[2]; Homo sapiens, Jurkat, 24 h
  IC50: > 100 µM
[3]
  IC50: 16.7 ± 50 µM

## CN1C(=O)C(=O)c2ccccc21 [Compound 3e]
[1]
  IC50: 2.82 µM
[2]; Homo sapiens
  IC50: 7.13 µM
[3]
  IC50 (μM) HEK293: no activity
  IC50: > 100 µM
[4]
  IC50: 3 to 7 µM

## O=C1C(=O)N(Cc2ccccc2)c2ccccc21 [Compound 3f]
[1]
  IC50: 3.13 µM
[2]
  IC50 (μM) Jurkat: strong activity
[2]; Homo sapiens, Jurkat, 24 h
  IC50: 3.13 µM
[3]
  IC50 (μM) HEK293: no activity
  IC50: > 100 µM
[4]
  IC50: 3 to 7 µM

## CC(=O)N1C(=O)C(=O)c2ccccc21 [Compound 3h, N-acetylisatin]
[1]
  IC50 (μM) HepG2: no anti-cancer activity
  IC50: > 100 µM
[2]; Homo sapiens, Jurkat, 24 h
  IC50: > 100 µM
[3]
  IC50: > 100 µM

## CCCC(CCC)C(=O)N/N=C1\C(=O)Nc2ccccc21 [Compound 4a, (Z) N′-(2-Oxoindolin-3-ylidene)-2-propylpentane Hydrazide]
[1]
  IC50 (μM) HepG2: inactive; also recorded: no anti-cancer activity
  IC50: > 100 µM
[2]
  IC50: 3.15 µM
  IC50 (μM) Jurkat: strong activity
[2]; Homo sapiens, Jurkat, 24 h
  IC50: 3.14 µM
[3]
  IC50 (μM) HEK293: inactive
  IC50: > 100 µM
[4]
  IC50: 3 to 7 µM
other
  melting point: 175 to 176 °C

## CCCC(CCC)C(=O)N/N=C1\C(=O)Nc2ccc(Br)cc21 [Compound 4b, (Z) N′-(5-Bromo-2-oxoindolin-3-ylidene)-2-propylpentane Hydrazide]
[1]
  IC50 (μM) HepG2: no anti-cancer activity
  IC50: > 100 µM
[2]; Homo sapiens, Jurkat, 24 h
  IC50: > 100 µM
[3]
  IC50: 26.1 ± 31.3 µM
other
  melting point: 172 to 173 °C

## CCCC(CCC)C(=O)N/N=C1\C(=O)Nc2ccc(Cl)cc21 [Compound 4c, (Z) N′-(5-Chloro-2-oxoindolin-3-ylidene)-2-propylpentane Hydrazide]
[1]
  IC50: 4.39 µM
[2]
  IC50 (μM) Jurkat: strong activity
[2]; Homo sapiens, Jurkat, 24 h
  IC50: 2.9 µM
[3]
  IC50: 4.77 µM
[4]
  IC50: 3 to 7 µM
other
  melting point: 154 to 156 °C

## CCCC(CCC)C(=O)N/N=C1\C(=O)Nc2ccc(F)cc21 [Compound 4d, (Z) N′-(5-Fluoro-2-oxoindolin-3-ylidene)-2-propylpentane Hydrazide]
[1]
  IC50: > 100 µM
[2]; Homo sapiens, Jurkat, 24 h
  IC50: > 100 µM
[3]
  IC50: > 100 µM
other
  melting point: 180 to 182 °C

## CCCC(CCC)C(=O)N/N=C1\C(=O)N(C)c2ccccc21 [Compound 4e, (Z) N′-(1-Methyl-2-oxoindolin-3-ylidene)-2-propylpentane Hydrazide]
[1]
  IC50: 7.61 µM
[2]; Homo sapiens, Jurkat, 24 h
  IC50: 3.19 µM
[3]
  IC50 (μM) HEK293: no activity
  IC50: > 100 µM
[4]
  IC50: 3 to 7 µM
other
  melting point: 154 to 156 °C

## CCCC(CCC)C(=O)N/N=C1\C(=O)N(Cc2ccccc2)c2ccccc21 [Compound 4f, (Z) N′-(1-Benzyl-2-oxoindolin-3-ylidene)-2-propylpentane Hydrazide]
[1]
  IC50 (μM) HepG2: no anti-cancer activity
  IC50: > 100 µM
[2]; Homo sapiens, Jurkat, 24 h
  IC50: > 100 µM
[3]
  IC50: > 100 µM
other
  melting point: 170 to 172 °C

## CCCC(CCC)C(=O)N/N=C1\C(=O)N(CCBr)c2ccccc21 [Compound 4g, (Z)-N′-(1-(2-Bromoethyl)-2-oxoindolin-3-ylidene)-2-propylpentane Hydrazide]
[1]
  IC50 (μM) HepG2: no anti-cancer activity
  IC50: > 100 µM
[2]; Homo sapiens
  IC50: > 100 µM
[3]
  IC50: 45.4 ± 48.9 µM
other
  melting point: 90 to 91 °C

## CCCC(CCC)C(=O)NNC(=O)C(=O)c1ccccc1NC(C)=O [Compound 4h, N-(2-(2-Oxo-2-(2-(2-propylpentanoyl)hydrazinyl)acetyl)phenyl) Acetamide]
[1]
  IC50 (μM) HepG2: no anti-cancer activity
  IC50: > 100 µM
[2]; Homo sapiens, Jurkat, 24 h
  IC50: > 100 µM
[3]
  IC50: > 100 µM
other
  melting point: 180 to 181 °C

## O=c1[nH]cc(F)c(=O)[nH]1 [Compound 5-FU, 5-Fluorouracil, reference compound]
[1]
  IC50: 32.1 ± 48.1 µM
[2]; Homo sapiens, Jurkat, 24 h
  IC50: 51.2 ± 47.4 µM
[3]
  IC50: > 100 µM
[4]
  IC50: 32 to 50 µM
